Our source for the IC50 values is BindingDB's records for doi:10.1021/jm900078f (Metabasis Therapeutics, 2009).

Structures are written as SMILES.

The assay concerns the target T1, Fructose-1,6-bisphosphatase 1 (Homo sapiens, UniProt P09467).
T1 sequence (P09467 whole entry): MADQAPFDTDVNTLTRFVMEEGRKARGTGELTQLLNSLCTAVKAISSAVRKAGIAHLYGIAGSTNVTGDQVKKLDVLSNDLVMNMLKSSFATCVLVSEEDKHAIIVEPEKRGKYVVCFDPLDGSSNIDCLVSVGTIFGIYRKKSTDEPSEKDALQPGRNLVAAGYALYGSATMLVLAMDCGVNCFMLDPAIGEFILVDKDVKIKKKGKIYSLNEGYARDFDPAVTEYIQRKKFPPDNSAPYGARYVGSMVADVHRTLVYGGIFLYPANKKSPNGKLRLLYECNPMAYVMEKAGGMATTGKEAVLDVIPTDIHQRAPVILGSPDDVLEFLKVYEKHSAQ
The experiment in a line: Inhibition of human liver FBPase expressed in Escherichia coli by spectrophotometry.

On to `Nc1ncnc2c1nc(-c1ccc(P(=O)(O)O)o1)n2CCC1CCCCC1` [5-(6-amino-9-(2-cyclohexylethyl)-9H-purin-8-yl)furan-2-ylphosphonic acid], for which the IC50 (commonly the midpoint of a concentration-inhibition curve) came out at 1400 nM.
